Measurements from PMC7026418, “The kinase polypharmacology landscape of clinical PARP inhibitors” (Scientific Reports, 2020).
Where two headings read alike, the source gives them in different places. One block for each compound: values may come before it.

What was measured:
Experiment in all cases: biochemical
Design in all cases: DiscoveRx KINOMEscan active site-directed competition binding; percent of control kinase bound to immobilised ligand
PIK3CA = PIK3CA (Homo sapiens, UniProt P42336)
TSSK1B = biological target: T1, TSSK1B (Homo sapiens, UniProt Q9BXA7)
T1 sequence (Q9BXA7 1-367): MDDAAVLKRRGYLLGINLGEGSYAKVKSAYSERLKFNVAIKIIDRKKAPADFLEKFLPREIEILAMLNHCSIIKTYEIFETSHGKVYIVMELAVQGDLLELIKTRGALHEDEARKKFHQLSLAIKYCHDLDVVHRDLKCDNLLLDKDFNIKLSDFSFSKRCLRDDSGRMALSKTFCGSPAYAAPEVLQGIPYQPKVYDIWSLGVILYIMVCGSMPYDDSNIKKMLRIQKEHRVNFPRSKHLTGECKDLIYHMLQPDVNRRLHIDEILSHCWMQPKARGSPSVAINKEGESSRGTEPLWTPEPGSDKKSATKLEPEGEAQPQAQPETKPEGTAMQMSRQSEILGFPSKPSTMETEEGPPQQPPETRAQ

VRK2 = VRK2 (Homo sapiens, UniProt Q86Y07)
SGK2 = biological target: T2, SGK2 (Homo sapiens, UniProt Q9HBY8)
T2 sequence (Q9HBY8 1-367): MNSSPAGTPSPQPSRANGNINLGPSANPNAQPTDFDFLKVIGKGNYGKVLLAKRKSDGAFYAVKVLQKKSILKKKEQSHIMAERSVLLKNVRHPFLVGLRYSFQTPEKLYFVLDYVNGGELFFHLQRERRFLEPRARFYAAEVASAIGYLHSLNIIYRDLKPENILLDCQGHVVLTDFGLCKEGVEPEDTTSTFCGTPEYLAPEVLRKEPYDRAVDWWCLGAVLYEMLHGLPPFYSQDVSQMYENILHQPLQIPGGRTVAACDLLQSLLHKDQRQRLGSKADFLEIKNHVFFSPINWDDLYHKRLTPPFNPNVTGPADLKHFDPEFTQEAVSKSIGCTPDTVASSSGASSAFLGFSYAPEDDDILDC

PIP5K1C = PIP5K1C (Homo sapiens, UniProt O60331)
IRAK1 = IRAK1 (Homo sapiens, UniProt P51617)
LZK = biological target: T3, LZK (Homo sapiens, UniProt O43283)
T3 construct: gene MAP3K13
T3 sequence (O43283 1-966): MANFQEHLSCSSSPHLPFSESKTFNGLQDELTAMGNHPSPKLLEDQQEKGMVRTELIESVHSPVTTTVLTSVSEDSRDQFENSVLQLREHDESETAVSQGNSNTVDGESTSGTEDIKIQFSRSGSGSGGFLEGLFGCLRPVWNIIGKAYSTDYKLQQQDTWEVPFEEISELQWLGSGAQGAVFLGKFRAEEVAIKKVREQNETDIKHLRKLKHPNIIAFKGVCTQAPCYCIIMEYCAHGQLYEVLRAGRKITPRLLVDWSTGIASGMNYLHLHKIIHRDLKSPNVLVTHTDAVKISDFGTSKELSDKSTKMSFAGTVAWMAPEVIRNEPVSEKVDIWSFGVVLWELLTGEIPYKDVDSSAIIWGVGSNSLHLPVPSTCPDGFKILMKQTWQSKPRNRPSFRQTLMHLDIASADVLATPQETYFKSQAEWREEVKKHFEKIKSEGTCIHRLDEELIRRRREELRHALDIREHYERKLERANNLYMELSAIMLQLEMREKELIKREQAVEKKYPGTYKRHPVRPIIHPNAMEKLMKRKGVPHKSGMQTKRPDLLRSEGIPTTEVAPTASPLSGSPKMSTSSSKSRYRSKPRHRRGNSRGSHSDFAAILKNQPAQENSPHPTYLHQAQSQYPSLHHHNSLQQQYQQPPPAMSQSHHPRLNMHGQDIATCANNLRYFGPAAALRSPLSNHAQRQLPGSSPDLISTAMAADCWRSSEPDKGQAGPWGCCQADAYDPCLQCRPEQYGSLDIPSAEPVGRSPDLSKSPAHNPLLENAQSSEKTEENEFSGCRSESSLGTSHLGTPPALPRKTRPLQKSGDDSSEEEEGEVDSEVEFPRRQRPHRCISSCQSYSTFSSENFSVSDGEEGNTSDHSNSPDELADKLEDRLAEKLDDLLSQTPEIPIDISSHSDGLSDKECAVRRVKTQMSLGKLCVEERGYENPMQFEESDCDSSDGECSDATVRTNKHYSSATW

PHKG2 = biological target: T4, PHKG2 (Homo sapiens, UniProt P15735)
T4 sequence (P15735 1-406): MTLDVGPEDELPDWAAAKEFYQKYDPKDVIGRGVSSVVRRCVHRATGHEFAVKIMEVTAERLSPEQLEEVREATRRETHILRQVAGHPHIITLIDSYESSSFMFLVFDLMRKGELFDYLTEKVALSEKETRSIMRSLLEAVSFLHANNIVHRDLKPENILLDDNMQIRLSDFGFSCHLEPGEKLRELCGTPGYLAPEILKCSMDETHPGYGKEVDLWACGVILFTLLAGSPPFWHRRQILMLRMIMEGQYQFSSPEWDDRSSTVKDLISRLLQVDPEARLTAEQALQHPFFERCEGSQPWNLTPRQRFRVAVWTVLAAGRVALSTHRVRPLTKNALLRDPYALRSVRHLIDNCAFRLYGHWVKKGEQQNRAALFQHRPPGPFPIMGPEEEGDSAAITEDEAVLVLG

MINK = biological target: T5, MINK (Homo sapiens, UniProt Q8N4C8)
T5 construct: gene MINK1

[1] = read-out: Olaparib / %Ctrl @ 10000nM
[2] = read-out: Talazoparib (BMN 673) / %Ctrl @ 10000nM
[3] = read-out: Rucaparib / %Ctrl @ 10000nM, binding competition, % of control
[4] = read-out: Niraparib (MK-4827) / %Ctrl @ 10000nM

T5 sequence (Q8N4C8 whole entry): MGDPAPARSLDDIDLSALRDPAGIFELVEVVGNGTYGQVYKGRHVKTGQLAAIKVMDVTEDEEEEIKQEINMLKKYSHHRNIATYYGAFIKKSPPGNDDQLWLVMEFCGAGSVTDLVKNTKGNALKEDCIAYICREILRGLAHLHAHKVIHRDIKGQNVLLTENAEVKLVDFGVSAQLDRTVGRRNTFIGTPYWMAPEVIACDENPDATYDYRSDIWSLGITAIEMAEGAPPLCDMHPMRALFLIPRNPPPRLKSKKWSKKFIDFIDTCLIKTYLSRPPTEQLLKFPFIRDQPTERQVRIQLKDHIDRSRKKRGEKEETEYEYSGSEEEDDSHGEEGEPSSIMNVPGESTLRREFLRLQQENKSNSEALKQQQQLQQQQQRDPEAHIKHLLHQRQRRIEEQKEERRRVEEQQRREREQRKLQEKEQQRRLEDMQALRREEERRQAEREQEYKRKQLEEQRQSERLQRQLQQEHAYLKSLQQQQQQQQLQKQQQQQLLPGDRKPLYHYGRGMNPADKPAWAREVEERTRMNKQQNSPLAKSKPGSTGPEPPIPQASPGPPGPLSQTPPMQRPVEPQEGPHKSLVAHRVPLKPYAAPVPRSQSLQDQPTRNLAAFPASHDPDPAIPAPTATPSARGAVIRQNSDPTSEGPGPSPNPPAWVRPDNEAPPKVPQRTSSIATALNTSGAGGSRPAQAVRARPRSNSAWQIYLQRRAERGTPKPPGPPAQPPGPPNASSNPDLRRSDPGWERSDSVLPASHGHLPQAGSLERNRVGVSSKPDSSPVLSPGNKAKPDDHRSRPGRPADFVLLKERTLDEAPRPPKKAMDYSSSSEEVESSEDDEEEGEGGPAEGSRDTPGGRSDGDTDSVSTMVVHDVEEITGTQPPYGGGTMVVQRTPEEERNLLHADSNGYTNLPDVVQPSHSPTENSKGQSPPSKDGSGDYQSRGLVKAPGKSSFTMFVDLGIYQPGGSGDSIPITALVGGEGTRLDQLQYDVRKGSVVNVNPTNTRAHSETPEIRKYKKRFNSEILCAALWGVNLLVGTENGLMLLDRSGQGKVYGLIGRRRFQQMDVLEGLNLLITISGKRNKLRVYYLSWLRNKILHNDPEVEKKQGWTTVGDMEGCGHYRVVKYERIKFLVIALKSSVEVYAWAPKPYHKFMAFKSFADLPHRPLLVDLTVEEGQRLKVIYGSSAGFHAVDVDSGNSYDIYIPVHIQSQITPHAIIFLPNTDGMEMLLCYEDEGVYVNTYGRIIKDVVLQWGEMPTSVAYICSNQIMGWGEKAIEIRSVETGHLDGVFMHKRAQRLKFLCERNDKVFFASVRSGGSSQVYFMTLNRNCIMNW
IRAK1, sequence (P51617 whole entry): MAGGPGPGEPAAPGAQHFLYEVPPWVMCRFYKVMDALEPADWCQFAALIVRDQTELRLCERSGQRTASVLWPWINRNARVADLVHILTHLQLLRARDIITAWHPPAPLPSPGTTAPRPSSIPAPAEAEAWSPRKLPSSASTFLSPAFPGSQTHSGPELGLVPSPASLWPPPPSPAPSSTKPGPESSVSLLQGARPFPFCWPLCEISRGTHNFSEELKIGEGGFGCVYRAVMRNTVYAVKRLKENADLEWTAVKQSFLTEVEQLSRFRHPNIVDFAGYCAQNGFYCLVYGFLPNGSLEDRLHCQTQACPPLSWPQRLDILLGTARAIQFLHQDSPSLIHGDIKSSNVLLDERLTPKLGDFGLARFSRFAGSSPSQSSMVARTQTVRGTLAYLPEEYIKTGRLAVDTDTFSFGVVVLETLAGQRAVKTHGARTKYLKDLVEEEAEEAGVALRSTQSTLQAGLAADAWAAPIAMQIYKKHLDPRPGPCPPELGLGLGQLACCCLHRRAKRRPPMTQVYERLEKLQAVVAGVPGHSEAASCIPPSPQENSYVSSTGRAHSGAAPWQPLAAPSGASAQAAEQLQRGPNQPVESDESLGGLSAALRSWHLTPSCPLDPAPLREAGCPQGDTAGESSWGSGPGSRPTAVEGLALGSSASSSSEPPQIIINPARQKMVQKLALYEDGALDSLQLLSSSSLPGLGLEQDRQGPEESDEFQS
PIK3CA, sequence (P42336 whole entry): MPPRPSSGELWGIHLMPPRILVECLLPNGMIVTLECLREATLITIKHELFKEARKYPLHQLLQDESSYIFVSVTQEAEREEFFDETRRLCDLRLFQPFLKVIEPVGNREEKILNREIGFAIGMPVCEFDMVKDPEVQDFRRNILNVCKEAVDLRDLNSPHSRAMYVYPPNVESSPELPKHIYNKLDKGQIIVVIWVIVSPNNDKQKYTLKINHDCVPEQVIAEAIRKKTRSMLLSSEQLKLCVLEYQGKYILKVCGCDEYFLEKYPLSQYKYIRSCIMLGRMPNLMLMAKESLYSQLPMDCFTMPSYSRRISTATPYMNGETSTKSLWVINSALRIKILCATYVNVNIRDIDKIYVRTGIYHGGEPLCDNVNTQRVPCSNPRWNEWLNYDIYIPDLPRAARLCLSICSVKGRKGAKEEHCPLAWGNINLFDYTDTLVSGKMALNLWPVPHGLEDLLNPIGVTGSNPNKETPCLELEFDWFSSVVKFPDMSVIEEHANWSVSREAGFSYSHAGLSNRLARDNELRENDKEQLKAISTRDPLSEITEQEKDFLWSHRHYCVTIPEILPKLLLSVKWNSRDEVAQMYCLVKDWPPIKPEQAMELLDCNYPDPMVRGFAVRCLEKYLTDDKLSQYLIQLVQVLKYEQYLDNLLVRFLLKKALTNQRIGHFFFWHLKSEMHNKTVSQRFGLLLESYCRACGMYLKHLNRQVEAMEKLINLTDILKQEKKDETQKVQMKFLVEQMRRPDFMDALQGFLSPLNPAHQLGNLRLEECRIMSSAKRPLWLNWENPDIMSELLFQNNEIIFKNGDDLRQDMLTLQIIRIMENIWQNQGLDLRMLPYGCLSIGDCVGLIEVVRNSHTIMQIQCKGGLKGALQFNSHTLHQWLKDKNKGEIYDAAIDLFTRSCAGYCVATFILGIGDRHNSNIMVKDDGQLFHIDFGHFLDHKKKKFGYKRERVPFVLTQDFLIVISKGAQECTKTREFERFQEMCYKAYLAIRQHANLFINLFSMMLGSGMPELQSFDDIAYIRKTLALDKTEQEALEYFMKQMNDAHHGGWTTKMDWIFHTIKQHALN
PIP5K1C, sequence (O60331 whole entry): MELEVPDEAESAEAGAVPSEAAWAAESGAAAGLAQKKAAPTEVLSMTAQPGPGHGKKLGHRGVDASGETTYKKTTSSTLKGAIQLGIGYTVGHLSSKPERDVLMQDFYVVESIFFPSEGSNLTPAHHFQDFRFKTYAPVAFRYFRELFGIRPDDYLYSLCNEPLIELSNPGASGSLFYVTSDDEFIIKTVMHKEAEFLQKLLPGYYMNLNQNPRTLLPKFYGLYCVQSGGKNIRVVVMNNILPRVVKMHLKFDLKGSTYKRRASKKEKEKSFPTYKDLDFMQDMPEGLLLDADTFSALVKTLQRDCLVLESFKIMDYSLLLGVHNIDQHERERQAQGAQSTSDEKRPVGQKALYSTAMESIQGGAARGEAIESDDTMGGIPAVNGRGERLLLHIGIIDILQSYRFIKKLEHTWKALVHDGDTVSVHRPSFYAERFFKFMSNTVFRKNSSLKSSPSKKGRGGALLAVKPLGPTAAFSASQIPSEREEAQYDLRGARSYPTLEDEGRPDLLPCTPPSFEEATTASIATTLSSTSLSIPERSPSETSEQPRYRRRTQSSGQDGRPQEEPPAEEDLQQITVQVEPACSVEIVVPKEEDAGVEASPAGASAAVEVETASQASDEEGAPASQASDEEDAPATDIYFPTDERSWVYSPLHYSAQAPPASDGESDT
VRK2, sequence (Q86Y07 whole entry): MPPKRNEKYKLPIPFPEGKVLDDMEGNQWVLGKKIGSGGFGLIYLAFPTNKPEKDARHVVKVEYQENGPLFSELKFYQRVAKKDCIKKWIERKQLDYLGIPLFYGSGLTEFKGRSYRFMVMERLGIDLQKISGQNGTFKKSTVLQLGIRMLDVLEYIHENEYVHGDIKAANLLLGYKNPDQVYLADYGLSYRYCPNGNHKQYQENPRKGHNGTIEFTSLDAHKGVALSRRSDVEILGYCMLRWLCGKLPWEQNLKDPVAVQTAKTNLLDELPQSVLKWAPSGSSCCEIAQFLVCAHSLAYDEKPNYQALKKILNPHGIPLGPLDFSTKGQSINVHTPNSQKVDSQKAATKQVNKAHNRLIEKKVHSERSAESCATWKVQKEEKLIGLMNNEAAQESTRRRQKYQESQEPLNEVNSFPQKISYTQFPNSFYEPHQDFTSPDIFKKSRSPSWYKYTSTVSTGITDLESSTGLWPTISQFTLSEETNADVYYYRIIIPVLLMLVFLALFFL

percent of control binding at 10 µM (PIK3CA; [1]): 87%
percent of control binding at 10 µM (TSSK1B; [1]): 100%
percent of control binding at 10 µM (VRK2; [1]): 99%
percent of control binding at 10 µM (SGK2; [1]): 99%
percent of control binding at 10 µM (PIP5K1C; [1]): 100%
percent of control binding at 10 µM (IRAK1; [1]): 82%
percent of control binding at 10 µM (LZK; [1]): 100%
percent of control binding at 10 µM (PHKG2; [1]): 100%
percent of control binding at 10 µM (MINK; [1]): 100%
Structure (SMILES): O=C(c1cc(Cc2n[nH]c(=O)c3ccccc23)ccc1F)N1CCN(C(=O)C2CC2)CC1 [Olaparib]

percent of control binding at 10 µM (PIK3CA; [2]): 59%
percent of control binding at 10 µM (TSSK1B; [2]): 94%
percent of control binding at 10 µM (VRK2; [2]): 100%
percent of control binding at 10 µM (SGK2; [2]): 89%
percent of control binding at 10 µM (PIP5K1C; [2]): 100%
percent of control binding at 10 µM (IRAK1; [2]): 88%
percent of control binding at 10 µM (LZK; [2]): 100%
percent of control binding at 10 µM (PHKG2; [2]): 97%
percent of control binding at 10 µM (MINK; [2]): 100%
Structure (SMILES): Cn1ncnc1[C@H]1c2n[nH]c(=O)c3cc(F)cc(c23)N[C@@H]1c1ccc(F)cc1 [Talazoparib]

percent of control binding at 10 µM (PIK3CA; [3]): 91%
percent of control binding at 10 µM (TSSK1B; [3]): 88%
percent of control binding at 10 µM (VRK2; [3]): 95%
percent of control binding at 10 µM (SGK2; [3]): 78%
percent of control binding at 10 µM (PIP5K1C; [3]): 100%
percent of control binding at 10 µM (IRAK1; [3]): 19%
percent of control binding at 10 µM (LZK; [3]): 100%
percent of control binding at 10 µM (PHKG2; [3]): 70%
percent of control binding at 10 µM (MINK; [3]): 29%
Structure (SMILES): CNCc1ccc(-c2[nH]c3cc(F)cc4c3c2CCNC4=O)cc1 [Rucaparib]

Structure (SMILES): NC(=O)c1cccc2cn(-c3ccc([C@@H]4CCCNC4)cc3)nc12 [Niraparib]
percent of control binding at 10 µM (PIK3CA; [4]): 100%
percent of control binding at 10 µM (TSSK1B; [4]): 65%
percent of control binding at 10 µM (VRK2; [4]): 65%
percent of control binding at 10 µM (SGK2; [4]): 96%
percent of control binding at 10 µM (PIP5K1C; [4]): 83%
percent of control binding at 10 µM (IRAK1; [4]): 18%
percent of control binding at 10 µM (LZK; [4]): 96%
percent of control binding at 10 µM (PHKG2; [4]): 87%
percent of control binding at 10 µM (MINK; [4]): 67%
